Assay results as given in patent US7901893B2, “NPC1L1 (NPC3) and methods of identifying ligands thereof” (Merck Sharp & Dohme Corp., priority 2004, dated 2011).
Values joined by “and” are separate entries in the source; they are usually repeats but may differ in a detail not shown here. Equal values may be shown once. Read-outs that look alike come from different tables or passages of the source. Values belong to the compound of their own block, whether it stands above or below them.

Legend:
[1] = molecular target: T1, rat brush border membrane vesicles (Rattus norvegicus, UniProt Q6T3U3); assay: Binding assay with rat brush border membrane vesicles
T1 construct: from tissue; host or cells: rat (male Sprague-Dawley) small-intestinal mucosa, brush border membrane vesicles
Source text: Glass fiber filters (GF/C) were obtained from Whatman.
Rate constants for binding and dissociation.
Analog structures are defined in Table 12.

[2] = molecular target: T2, rhesus brush border membrane vesicles (Macaca mulatta, UniProt A0MJA5); assay: Binding assay with rhesus brush border membrane vesicles
T2 sequence (A0MJA5 1-1332): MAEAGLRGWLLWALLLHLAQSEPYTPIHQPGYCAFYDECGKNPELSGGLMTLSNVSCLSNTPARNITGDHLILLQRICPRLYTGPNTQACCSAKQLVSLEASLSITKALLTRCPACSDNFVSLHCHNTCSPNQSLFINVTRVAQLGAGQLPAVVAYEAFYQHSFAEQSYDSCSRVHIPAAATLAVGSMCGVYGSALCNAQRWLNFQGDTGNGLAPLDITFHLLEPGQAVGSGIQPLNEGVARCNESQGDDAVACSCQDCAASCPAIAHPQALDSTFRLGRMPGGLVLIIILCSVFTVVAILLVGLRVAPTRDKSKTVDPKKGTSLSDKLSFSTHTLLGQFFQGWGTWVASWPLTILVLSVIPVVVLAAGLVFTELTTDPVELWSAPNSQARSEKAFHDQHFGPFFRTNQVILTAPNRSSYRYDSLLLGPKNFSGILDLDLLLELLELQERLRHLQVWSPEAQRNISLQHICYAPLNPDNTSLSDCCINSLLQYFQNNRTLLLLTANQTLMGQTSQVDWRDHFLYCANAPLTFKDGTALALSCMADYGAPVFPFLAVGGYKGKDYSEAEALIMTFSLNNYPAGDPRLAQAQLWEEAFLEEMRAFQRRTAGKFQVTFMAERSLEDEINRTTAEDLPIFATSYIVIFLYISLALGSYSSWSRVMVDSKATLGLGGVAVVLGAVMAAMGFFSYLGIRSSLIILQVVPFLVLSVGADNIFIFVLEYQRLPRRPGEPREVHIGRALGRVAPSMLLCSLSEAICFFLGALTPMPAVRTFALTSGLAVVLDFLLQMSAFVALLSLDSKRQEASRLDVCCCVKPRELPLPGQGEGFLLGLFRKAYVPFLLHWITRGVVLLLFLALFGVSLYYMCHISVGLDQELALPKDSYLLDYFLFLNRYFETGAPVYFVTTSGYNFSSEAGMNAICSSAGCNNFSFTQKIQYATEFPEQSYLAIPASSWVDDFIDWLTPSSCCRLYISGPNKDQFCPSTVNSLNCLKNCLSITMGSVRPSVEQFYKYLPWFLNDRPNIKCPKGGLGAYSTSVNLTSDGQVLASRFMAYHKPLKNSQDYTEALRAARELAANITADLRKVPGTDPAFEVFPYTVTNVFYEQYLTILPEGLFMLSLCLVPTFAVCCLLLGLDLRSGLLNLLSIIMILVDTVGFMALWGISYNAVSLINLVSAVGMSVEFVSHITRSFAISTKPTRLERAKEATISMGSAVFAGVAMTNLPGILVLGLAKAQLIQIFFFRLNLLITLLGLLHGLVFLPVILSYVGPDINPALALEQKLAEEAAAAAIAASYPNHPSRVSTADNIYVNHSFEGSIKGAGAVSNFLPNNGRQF
Experimental: The intestines from freshly sacrificed animals were cut into segments, perfused with ice-cold saline buffer (Buffer A: 26 mM NaHCO3, 0.96 mM NaH2PO4, 5 mM HEPES, 5.5 mM glucose, 117 mM NaCl, 5.4 mM KCl, pH=7.4), placed on cold glass plates, opened longitudinally, and the mucosa scraped with glass microscope slips. This mucosa could be used fresh or frozen with identical results. To prepare the membranes, the mucosal scrapings were resuspended in 20 volumes of cold buffer consisting of 300 mM D-mannitol, 5 mM EGTA, 12 mM Tris, pH 7.4 with HCl, and containing 0.1 mM PMSF and a 1% dilution of a protease inhibitor cocktail (set 1, Calbiochem). They were homogenized using a Polytron at medium speed on ice until inspection with a microscope indicated complete cell lysis. Then, solid MgCl2 was added slowly with stirring to a final concentration of 10 mM, and the solution was kept stirring on ice for 15 min. Cellular debris was removed by centrifugation for 15 min at 3,000 g, and the membranes were recovered by centrifugation for 60 min at 48,000 g. The membranes were further rinsed by re-suspension in a buffer containing 50 mM D-mannitol, 5 mM EGTA, and 2 mM Tris at pH 7.40, and centrifugation for 60 min at 48,000 g. The final pellet was resuspended in 120 mM NaCl and 20 mM Tris at pH 7.40 to a concentration of ˜10-20 mg protein/ml, aliquoted, frozen in liquid nitrogen, and stored at −80 C. The activity was stable indefinitely and could be freeze-thawed with minimal loss of activity.
Binding assay. Assays were conducted in 12×75 mm glass test tubes and total volume 20-100 ul. In general, frozen membranes were diluted in buffer A or buffer A containing 0.03% taurocholate and 0.05% digitonin to a final concentration of 0.02 to 5 mg/ml. […] Competing ligands were likewise added as DMSO solutions to give a total 2-10% organic solvent content. […] At least 2 components of buffer A, the bicarbonate and phosphate salts, were later found to be inconsequential and were routinely omitted.
Bound ligand was quantified by single-tube vacuum filtration using GF/C glass fiber filters. […] Filtration was accomplished by adding 2.5 ml of ice cold buffer (120 mM NaCl, 0.1% sodium cholate, and 20 mM MES at pH 6.70) to the assay tube, pouring the mixture through the filter, and then rinsing the tube and filter twice more with another 2×2.5 ml buffer. The filters were counted in 7 ml vials using Packard DM liquid scintillation fluid.
Data analysis. Data from saturation experiments were subjected to a Scatchard analysis, and linear regression was performed to yield the equilibrium dissociation constant (Kd) and maximum receptor concentration (Bmax). […] Data from competition experiments were analyzed and IC50 values determined from Hill plots of the binding data.

[3] = 0.03% sodium taurocholate and 0.05% digitonin, 1.25 mg protein/ml, 100 nM 1, read-out: Rat BBM Ki
[4] = rat brush border membrane vesicles, read-out: RAT IC50 (nM), inhibition of ^3H-EZE-gluc binding
[5] = Monkey BBM Ki (nM), 0.03% sodium taurocholate and 0.05% digitonin, 1.25 mg protein/ml, 20 nM 1
[6] = 50 nM ^3H-EZE-glucuronide, 150 μg protein/assay, read-out: inhibition constant Ki, Rat
[7] = native rat intestinal brush border membranes, read-out: Rat BBMV Ki

SMILES: O=C(O)[C@H]1O[C@@H](Oc2ccc([C@@H]3[C@@H](CC[C@H](O)c4ccc(F)cc4)C(=O)N3c3ccc(F)cc3)cc2)[C@H](O)[C@@H](O)[C@@H]1O [Compound 1, Ezetimibe glucuronide]
rate constant for association kon ([1]; 25 nM 1, rat membranes, 25° C.): 5,540 M^−1 s^−1
kobs ([1]; 25 nM of 1 and 3 mg/ml protein at 25° C.): 0.004 s⁻¹
Ki [1, 6]: 530 nM
Kd ([1]; 1.5 mg/ml protein, 50 nM 1, 1 hour, read-out: KD at equilibrium by competition of unlabeled compound against 1): 600 nM
Ki [1, 3]: 390 nM
Bmax ([1]; ^3H-EZE-glucuronide, rat BBMV): 20.7 pmol/mg protein
Kd ([1]; ^3H-ezetimibe glucuronide, rat membranes, no detergent, read-out: KD (equilibrium saturation binding, Scatchard)): 542 nM and 540 nM
Ki [1, 7]: 600 nM
IC50 [1, 4]: 530 nM
rate constant for dissociation koff ([1]; rat membranes, dissociation initiated with 100 μM unlabeled ezetimibe glucuronide): 0.0024 s⁻¹
Kd ([1]; rat membranes, read-out: Kd predicted from rate constants (Kd=koff/kon)): 440 nM
IC50 ([1]; rat, read-out: in vitro binding affinity (IC50)): 542 nM
residence time ([1]; read-out: half-life of dissociation): 4.7 min
kon ([1]; read-out: rate constant for association kon, 25 nM 1, rat membranes, 25° C.): 5500 M⁻¹ s⁻¹
kon ([1]; read-out: rate constant for association kon, rat brush border membranes): 5540 M⁻¹ s⁻¹
koff ([1]; read-out: rate constant for dissociation koff): 0.0024 s⁻¹
IC50 [2]: 41 nM
Kd ([2]; KD at equilibrium by competition of unlabeled compound against 1, 0.5-1.25 mg/ml protein, 22-50 nM 1, more than 3 hours): 38.6 nM
Kd ([2]; Kd (equilibrium saturation binding, Scatchard), ^3H-ezetimibe glucuronide, rhesus membranes, no detergent): 41 nM
Kd ([2]; Kd predicted from rate constants (Kd=koff/kon), rhesus membranes): 32 nM
Ki [2, 5]: 15 nM
residence time ([2]; read-out: half-life for dissociation of the complex, rhesus/monkey complex): ~90 min
kon ([2]; read-out: rate constant for association kon): 3900 M⁻¹ s⁻¹
koff ([2]; read-out: rate constant for dissociation koff, rhesus membranes): 0.000123 s⁻¹
concentration of binding site ([2]; rhesus membranes): 5.5 pmol/mg membrane protein
rate constant for dissociation koff ([2]; rhesus membranes, listed as [^3H]ezetimibe glucuronide): 0.00012 s⁻¹

SMILES: CS(=O)(=O)NCC#Cc1ccc(N2C(=O)[C@H](CC[C@H](O)c3ccc(F)cc3)[C@H]2c2ccc(O[C@@H]3O[C@H](C(=O)O)[C@@H](O)[C@H](O)[C@H]3O)cc2)cc1 [Compound 2, 4-[(2S,3R)-3-[(3S)-3 (4-fluorophenyl)-3-hydroxypropyl]-1-(4-{3-[(methylsulfonyl)amino]prop-1-yn-1-yl}phenyl)-4-oxoazetidin-2-yl]phenyl β-D-glucopyranosiduronic acid]
Ki [1, 6]: 15 nM
Ki [1, 7]: 15 nM
potency relative to ezetimibe glucuronide ([1]; rat enterocyte brush border membrane preparations): 35 fold
potency relative to ezetimibe glucuronide ([2]; rhesus membrane preparations): equipotent

SMILES: O=C(O)[C@H]1O[C@@H](Oc2ccc([C@@H]3[C@@H](CCCc4ccc(F)cc4)C(=O)N3c3ccc(F)cc3)cc2)[C@H](O)[C@@H](O)[C@@H]1O [Compound 3]
Ki [1, 3]: 1600 nM
Ki [1, 7]: 2300 nM
IC50 [1, 4]: 2300 nM
Ki [2]: 150 nM

SMILES: O=C1[C@H](CC[C@H](O)c2ccc(F)cc2)[C@@H](c2ccc(O)cc2)N1c1ccc(F)cc1 [ezetimibe]
Kd ([1]; Table 11, rat, absence of detergents, read-out: KD): 542 nM
Kd ([2]; KD (nM), Table 11, monkey, absence of detergents): 41 nM

Further lines, results first:

Ki [1, 3]: 130000 nM
activity in vitro ([1]; in all species, Ki>100×KD for ezetimibe glucuronide): completely inactive
IC50 [1, 4]: > 100000 nM
Kd ([1]; rat membrane binding assay, read-out: Kd for the rat target): > 100000 nM
Ki [2, 5]: 22000 nM
SMILES: O=C(O)C1OC(Oc2ccc(C3C(CCC(O)c4ccc(F)cc4)C(=O)N3c3ccc(F)cc3)cc2)C(O)C(O)C1O (single isomer, unassigned) [Compound 4]

Ki [1, 3]: 2800 nM
Ki [1, 7]: 3900 nM
IC50 [1, 4]: 3900 nM
Ki [2, 5]: 120 nM
SMILES: O=C(O)[C@H]1O[C@@H](Oc2ccc([C@@H]3[C@@H](CC[C@@H](O)c4ccc(F)cc4)C(=O)N3c3ccc(F)cc3)cc2)[C@H](O)[C@@H](O)[C@@H]1O [Compound 5]

Ki [1, 3]: 33000 nM
Ki [1, 7]: 70000 nM
IC50 [1, 4]: 70000 nM
Ki [2]: 3300 nM
SMILES: O=C(CC[C@H]1C(=O)N(c2ccc(F)cc2)[C@@H]1c1ccc(O[C@@H]2O[C@H](C(=O)O)[C@@H](O)[C@H](O)[C@H]2O)cc1)c1ccc(F)cc1 [Compound 6]
